Assays:
[1] = system: human tumor cell line: ductal carcinoma breast; experiment: Human tumor cell lines in immunocompromised mice (intraperitoneal, ascitis): breast; assay type: in vivo; details: Breast CA; treated mice (4, 2 and 0.8 mg/kg/day orally for 10 days)
Protocol: (§1) Immunocompromised mice were used for this experiment. Mice were inbred in a sterile environment and fed ad libitum. Four groups of 40 mice, weighing approximately 20 g each (range: 17-25 g), were used for each tumor type. The human tumor cell lines used were the following: large B-cell lymphoma; squamous-cell carcinoma of the lung; ductal carcinoma breast; and adenocarcinoma of the lung. A suspension of tumor cells was injected in the peritoneum of immunocompromised mice. Following this, mice were examined and weighed daily. After 6-8 days, we observed the development of abdominal carcinomatosis and […]. At day 18, we observed the development of an abundant […], which increased the weight of the mice by approximately 20 g. At that time, mice were divided into four groups of 10. […] Assessment of tumor cell concentration in the […] abdominal metastases were measured on day 18 and every 2 days thereafter. In all mice, prior to treatment, we observed an increase in LDH ESR (>100) and a decrease in the hematocrit. Control (untreated) mice all died between day 21 and day 25 in all tumor types. […] Complete response: Weight (and ascetic) loss and the disappearance of all abdominal metastatic nodules and tumor cells. Partial response: Weight (and ascitic) loss and at least 25% decrease of tumor cell in the […] least 25% decrease in measured abdominal metastatic nodules. […] Progressive disease: When we observed an increase in […] or tumor volume or death of the animal.

[2] = system: human tumor cell line: large B-cell lymphoma; experiment: Human tumor cell lines in immunocompromised mice (intraperitoneal, ascitis): lymphoma; assay type: in vivo; details: treated mice (4, 2 and 0.8 mg/kg/day orally for 10 days)
Protocol: as §1

[3] = system: human tumor cell line: squamous-cell carcinoma of the lung; experiment: Human tumor cell lines in immunocompromised mice (intraperitoneal, ascitis): squamous lung; assay type: in vivo; details: treated mice (4, 2 and 0.8 mg/kg/day orally for 10 days)
Protocol: as §1

[4] = system: human tumor cell line: adenocarcinoma of the lung; experiment: Human tumor cell lines in immunocompromised mice (intraperitoneal, ascitis): lung adenocarcinoma; assay type: in vivo; details: treated mice (4, 2 and 0.8 mg/kg/day orally for 10 days)
Protocol: as §1

[5] = system: metastatic renal cell carcinoma (stage IV); experiment: Patient case: metastatic renal cell carcinoma; assay type: in vivo, human; details: 80 mg/day
[6] = system: uterine cancer stage IIB; experiment: Patient case: recurrent uterine cancer; assay type: in vivo, human; details: 60 mg/day, within three months; recurrent 3.2 cm pelvic mass before
Text: A patient presented with uterine cancer stage IIB. They previously received cisplatin-based chemotherapy and radiotherapy. […] A cervical biopsy confirms the recurrence. […] Within three months, the tumor had disappeared on clinical exam and abdomino-pelvic CT scan.

[7] = system: left squamous-cell carcinoma of the lung; experiment: Patient case: squamous-cell carcinoma of the lung; assay type: in vivo, human
Text: A patient with presented with a left squamous-cell carcinoma of the lung. […] Seven months later the patient received radiotherapy to the left lung. […] The patient undergoes a left pneumonectomy and drug therapy is stopped, but the tumor recurs and the patient dies.

[8] = system: lung large-cell adenocarcinoma metastatic to liver; experiment: Patient case: lung large-cell adenocarcinoma metastatic to liver; assay type: in vivo, human; design: LDH: unit not given beside the values
Text: A patient was diagnosed with a lung large-cell adenocarcinoma metastatic to liver. They received chemotherapy with no success. […] They also had frequent hemoptysis and elevated LDH, GGT, and bilirubin. The course of the patient's biologic parameters during treatment are depicted in Table 7.

[9] = system: experimental lymphoma; experiment: Histological analysis of liver and kidneys of mice with experimental lymphoma; assay type: in vivo; details: mouse with experimental lymphoma, orally daily 250 mg/kg
Protocol: FIGS. 11 and 12 are photomicrographs (450× and 900×, respectively) of part of the liver taken from a mouse with experimental lymphoma orally administered 24-ethyl-cholestane-3β,5α,6α-triol daily at a dosage of 250 mg/kg. Lymphocytic proliferation is insignificant.
Parenchymatous organs liver and kidneys received from mice with experimental lymphoma on the 15th day of observation and from mice treated with 24-ethyl-cholestane-3β,5α,6α-triol were taken for the histological analysis. Micropreparations were stained with hematoxilin eosin and examined by microscopy (FIGS. 9, 10, 11, and 12).

With `CC[C@H](CC[C@@H](C)[C@H]1CC[C@H]2[C@@H]3C[C@H](O)[C@@]4(O)C[C@@H](O)CC[C@]4(C)[C@H]3CC[C@]12C)C(C)C` [24-ethyl-cholestane-3β,5α,6α-triol] the “Complete Remission” value [1] was 60%, the “Partial Remission” value [1] was 20% and the “Progressive Disease” value [1] was 0%. The “Stable Disease” value [1] was 20%, the “Symptomatic Response” value [1] was 100% and the “Complete Remission” value [2] was 80%. For the same compound, the “Partial Remission” value [2] was 10%, the “Progressive Disease” value [2] was 0% and the “Stable Disease” value [2] was 10%. The “Symptomatic Response” value [2] was 100%, the “Complete Remission” value [3] was 50% and the “Partial Remission” value [3] was 30%. For the same compound, the “Progressive Disease” value [3] was 0%, the “Stable Disease” value [3] was 20% and the “Symptomatic Response” value [3] was 100%. The “Complete Remission” value [4] was 40%, the “Partial Remission” value [4] was 20% and the “Progressive Disease” value [4] was 10%. For the same compound, the “Stable Disease” value [4] was 30%, the “Symptomatic Response” value [4] was 100% and the “chest CT scan, nodule in the right lower lobe” value ([5]; eight months later) was 1 mm. For the same compound, the “chest CT scan” value ([5]; one year after commencing therapy) was “normal”, the “chest CT scan, left lung metastasis” value ([5]; six weeks after start, 1 cm deposit in both lungs before) was “disappearance of the left lung metastasis” and the “tumor on clinical exam and abdomino-pelvic CT scan” value [6] was “disappeared”. The general condition ([7]; 50 mg/day, after commencing therapy) was “drastic and rapid improvement”, the fibroscopy ([7]; fourteen months after therapy commenced) was “normal” and the late outcome ([7]; nearly five years after commencement of therapy) was “recurrence of the left lung tumor”. For the same compound, the left lung opacity ([7]; nine months after commencing treatment, radiotherapy to the left lung at seven months) was “significant regression”, the LDH ([8]; Day 11, 70 mg/day, Day 0 prior to treatment 2560 (nl < 480)) was 2264 and the LDH ([8]; Day 30, 70 mg/day) was 283. The LDH ([8]; Day 63, 70 mg/day) was 118, the “Total Bilirubin” value ([8]; Day 63, 70 mg/day, Day 0 prior to treatment 1.9 (nl < 1)) was 0.42 and the LDH ([8]; Day 85, 70 mg/day) was 230. For the same compound, the “Total Bilirubin” value ([8]; Day 85, 70 mg/day) was 0.37, the GGT ([8]; during treatment, 70 mg/day) was 31 and the “CT scans, masses in the lungs and liver” value ([8]; more than a year after commencement of therapy) was “decrease in number and size of previous masses”. The “lymphocytic proliferation in liver (photomicrographs)” value [9] was “insignificant”.

— patent publication US8293726B2, “Treatment of cancer and other diseases” (Vianova Labs, Inc., priority 2005, dated 2012)
